Laboratory results reported in PubChem BioAssay (NCI).
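GI50 marks 50% less growth. The concentration for full growth arrest is given as TGI.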

Columns and labels:
Assay in all cases: growth of human tumour cells (NCI), 384-well format
SF-539 CNS = tested on: SF-539 CNS
NCI-H522 lung = tested on: NCI-H522 lung
MALME-3M melanoma = tested on: MALME-3M melanoma
MDA-MB-468 breast = tested on: MDA-MB-468 breast
SF-268 CNS = tested on: SF-268 CNS
HCT-116 colon = tested on: HCT-116 colon
CCRF-CEM leukemia = tested on: CCRF-CEM leukemia
COLO 205 colon = tested on: COLO 205 colon
SK-MEL-2 melanoma = tested on: SK-MEL-2 melanoma
UACC-62 melanoma = tested on: UACC-62 melanoma
MDA-MB-435 melanoma = tested on: MDA-MB-435 melanoma
CAKI-1 renal = tested on: CAKI-1 renal
IGROV1 ovarian = tested on: IGROV1 ovarian
NCI-H460 NSCLC = tested on: NCI-H460 NSCLC
RXF 393 renal = tested on: RXF 393 renal
ACHN renal = tested on: ACHN renal
SN12C renal = tested on: SN12C renal
KM12 colon = tested on: KM12 colon
TK-10 renal = tested on: TK-10 renal
HCC-2998 colon = tested on: HCC-2998 colon
OVCAR-4 ovarian = tested on: OVCAR-4 ovarian
SK-OV-3 ovarian = tested on: SK-OV-3 ovarian
HCT-15 colon = tested on: HCT-15 colon
UACC-257 melanoma = tested on: UACC-257 melanoma
OVCAR-8 ovarian = tested on: OVCAR-8 ovarian
SF-295 CNS = tested on: SF-295 CNS
K-562 leukemia = tested on: K-562 leukemia
U251 glioblastoma = tested on: U251 glioblastoma
HOP-62 NSCLC = tested on: HOP-62 NSCLC
UO-31 renal = tested on: UO-31 renal
T-47D breast = tested on: T-47D breast
RPMI-8226 leukemia = tested on: RPMI-8226 leukemia
NCI-H322M lung = tested on: NCI-H322M lung
HT29 colon = tested on: HT29 colon
NCI-H226 lung = tested on: NCI-H226 lung
NCI/ADR-RES ovarian = tested on: NCI/ADR-RES ovarian
SK-MEL-5 melanoma = tested on: SK-MEL-5 melanoma
M14 melanoma = tested on: M14 melanoma
A549 NSCLC = tested on: A549 NSCLC
BT-549 breast = tested on: BT-549 breast
NCI-H23 lung = tested on: NCI-H23 lung
OVCAR-3 ovarian = tested on: OVCAR-3 ovarian
LOX IMVI melanoma = tested on: LOX IMVI melanoma
SW-620 colon = tested on: SW-620 colon
SNB-19 CNS = tested on: SNB-19 CNS
MOLT-4 leukemia = tested on: MOLT-4 leukemia
786-0 renal = tested on: 786-0 renal
HOP-92 NSCLC = tested on: HOP-92 NSCLC
A498 renal = tested on: A498 renal
SR leukemia = tested on: SR leukemia
HL-60(TB) leukemia = tested on: HL-60(TB) leukemia
OVCAR-5 ovarian = tested on: OVCAR-5 ovarian
DU-145 prostate = tested on: DU-145 prostate
MDA-MB-231 breast = tested on: MDA-MB-231 breast
PC-3 prostate = tested on: PC-3 prostate
SK-MEL-28 melanoma = tested on: SK-MEL-28 melanoma
MCF7 breast = tested on: MCF7 breast

## C#CCN(c1ccc(C(=O)N[C@@H](CCC(=O)N[C@H](CCC(=O)O)C(=O)O)C(=O)O)cc1)C1CCc2cc3nc(CO)[nH]c(=O)c3cc21 (some centres undefined)
SF-539 CNS
  GI50: 4.67 µM
  TGI: > 100 µM
NCI-H522 lung
  GI50: 3.04 µM
  TGI: 7.83 µM
MALME-3M melanoma
  GI50: > 100 µM
  TGI: > 100 µM
MDA-MB-468 breast
  GI50: 3.72 µM
  TGI: 8.76 µM
SF-268 CNS
  GI50: 4.09 µM
  TGI: 27.5 µM
HCT-116 colon
  GI50: 4.57 µM
  TGI: > 100 µM
CCRF-CEM leukemia
  GI50: 1.97 µM
  TGI: 4.68 µM
COLO 205 colon
  GI50: 7.84 µM
  TGI: > 100 µM
SK-MEL-2 melanoma
  GI50: 99.9 µM
  TGI: > 100 µM
UACC-62 melanoma
  GI50: 64.6 µM
  TGI: > 100 µM
MDA-MB-435 melanoma
  GI50: > 100 µM
  TGI: > 100 µM
CAKI-1 renal
  GI50: 8.9 µM
  TGI: > 100 µM
IGROV1 ovarian
  GI50: 60.3 µM
  TGI: > 100 µM
NCI-H460 NSCLC
  GI50: 5.02 µM
  TGI: > 100 µM
RXF 393 renal
  GI50: 8.09 µM
  TGI: 71.9 µM
ACHN renal
  GI50: 4.25 µM
  TGI: > 100 µM
SN12C renal
  GI50: 3.75 µM
  TGI: 46.9 µM
KM12 colon
  GI50: > 100 µM
  TGI: > 100 µM
TK-10 renal
  GI50: 6.69 µM
  TGI: > 100 µM
HCC-2998 colon
  GI50: 0.386 µM
  TGI: 3.96 µM
OVCAR-4 ovarian
  GI50: > 100 µM
  TGI: > 100 µM
SK-OV-3 ovarian
  GI50: 43.2 µM
  TGI: > 100 µM
HCT-15 colon
  GI50: 5.2 µM
  TGI: > 100 µM
UACC-257 melanoma
  GI50: > 100 µM
  TGI: > 100 µM
OVCAR-8 ovarian
  GI50: 4.54 µM
  TGI: > 100 µM
SF-295 CNS
  GI50: 2.76 µM
  TGI: 7 µM
K-562 leukemia
  GI50: 7.67 µM
  TGI: > 100 µM
U251 glioblastoma
  GI50: 68.9 µM
  TGI: > 100 µM
HOP-62 NSCLC
  GI50: 10.5 µM
  TGI: 45.8 µM
UO-31 renal
  GI50: 4.46 µM
  TGI: 62.4 µM
T-47D breast
  GI50: > 100 µM
  TGI: > 100 µM
RPMI-8226 leukemia
  GI50: 2 µM
  TGI: 4.03 µM
NCI-H322M lung
  GI50: > 100 µM
  TGI: > 100 µM
HT29 colon
  GI50: 5.23 µM
  TGI: > 100 µM
NCI-H226 lung
  GI50: 35.4 µM
  TGI: > 100 µM
NCI/ADR-RES ovarian
  GI50: 3.18 µM
  TGI: 8.45 µM
SK-MEL-5 melanoma
  GI50: 11.6 µM
  TGI: > 100 µM
M14 melanoma
  GI50: 8.69 µM
  TGI: > 100 µM
A549 NSCLC
  GI50: 5.94 µM
  TGI: > 100 µM
BT-549 breast
  GI50: 6.68 µM
  TGI: > 100 µM
NCI-H23 lung
  GI50: 21.9 µM
  TGI: 57.3 µM
OVCAR-3 ovarian
  GI50: 9.01 µM
  TGI: > 100 µM
LOX IMVI melanoma
  GI50: 5.03 µM
  TGI: > 100 µM
SW-620 colon
  GI50: 9 µM
  TGI: > 100 µM
SNB-19 CNS
  GI50: 5.96 µM
  TGI: > 100 µM
MOLT-4 leukemia
  GI50: 2.67 µM
  TGI: 5.52 µM
786-0 renal
  GI50: 3.69 µM
  TGI: 31.1 µM
HOP-92 NSCLC
  GI50: 13.3 µM
  TGI: > 100 µM
A498 renal
  GI50: 5.06 µM
  TGI: > 100 µM
SR leukemia
  GI50: 1.9 µM
  TGI: 3.38 µM
HL-60(TB) leukemia
  GI50: 3.02 µM
  TGI: 7.56 µM
OVCAR-5 ovarian
  GI50: > 100 µM
  TGI: > 100 µM
DU-145 prostate
  GI50: 3.49 µM
  TGI: 20.3 µM
MDA-MB-231 breast
  GI50: > 100 µM
  TGI: > 100 µM
PC-3 prostate
  GI50: 9.44 µM
  TGI: > 100 µM
SK-MEL-28 melanoma
  GI50: 5.13 µM
  TGI: > 100 µM
MCF7 breast
  GI50: 0.8 µM
  TGI: > 100 µM
